Test results from PMC3485206, “Integrative Binding Sites within Intracellular Termini of TRPV1 Receptor” (PLoS ONE, 2012).
Positions count from the first letter of the chain named. In names and notes the source's numbering stands. Entries after “also recorded” stand apart in the source; their conditions may differ. Each block holds one molecule with its values, some of them ahead of it.

Columns and labels:
[1] = Surface plasmon resonance, binding to PC/PIP2 liposomes on sensor chip; conditions: for Kd: SPR equilibrium binding, PC/PIP2 (20∶1) liposomes, 25°C, HBSS, read-out: equilibrium dissociation constant KD; for binding to PIP2 containing liposomes (in words): SPR, PC/PIP2 liposomes
Description: All SPR measurements were performed at 25°C using a liposome-coated NLC chip in aProteOn XPR36 Protein Interaction Array System (Bio-rad, Hercules, CA, USA). […] Lipid solution (10 mg/ml) in HBSS was mixed with 8 µM oligonucleotide 5′-[…]-3′, modified at the 3′ end with cholesterol (Generi-Biotech, Hradec Kralove, Czech Republic), and the mixture was extruded using a LiposoFast Basic apparatus (Avestin Europe, Mannheim, Germany) with a polycarbonate membrane with a 100-nm pore diameter (Avestin Europe, Mannheim, Germany). The lipid/DNA ratio was 1200∶1. The vesicles were then incubated with 8 µM anti-sense oligonucleotide 5′-[…]-3′, modified at the 5′ end with biotin (Generi-Biotech, Hradec Kralove, Czech Republic), and washed by centrifugation (50,000 g) for 30 min at 4°C. The vesicles were diluted to a final concentration of 1 mg/ml in HBSS and immobilized on the streptavidin-coated NLC chip (Bio-rad, Hercules, CA, USA) surface at a flow rate of 25 µl/min for 10 min to give ∼800 −1500 resonance units (RU). All SPR measurements were carried out in HBSS at a flow rate of 30 µl/min for both the association and dissociation phase of the sensograms. For determining equilibrium binding, the association phases of five different concentrations of each protein were brought to near-equilibrium values (Req). Surfaces were typically regenerated with 50 µl of 1 M NaCl and 20 mM glycin buffer, pH 3.5. The sensograms were corrected for sensor background by interspot referencing (the sites within the 6×6 array which are not exposed to ligand immobilization but are exposed to analyte flow), and double referenced by subtraction of the analyte using a “blank” injection. Assuming a Langmuir-type binding between the protein (P) and protein binding sites (S) on vesicles (i.e. P + S ↔ PS), Req values were then plotted versus protein concentration (P0), and the KD value was determined by nonlinear least-squares analysis of the binding isotherm using the equation Req = Rmax/(1+KD/P0).

[2] = Steady state fluorescence anisotropy binding assay with PIP2-Bodipy; conditions: for Kd: PIP2-Bodipy 10 nM titrated with protein or peptide, room temperature, read-out: equilibrium dissociation constant KD
Description: (§1) Peptides were dissolved in 50 mM Tris-HCl (pH 7.5), 100 mM NaCl buffer and were used for measurements of fluorescence anisotropy. Steady-state fluorescence anisotropy measurements were performed in an ISS Photon Counting Steady-State Spectrofluorimeter (ISS PC1TM) at room temperature with a PIP2-Bodipy® FL C5, C6-PtdIns(4,5)P2 molecular probe (Invitrogen, cat. n. B22627, Figure S3A), hereafter denoted as PIP2-Bodipy and the control experiment was done with 16∶0-06∶0 NBD PC 1-palmitoyl-2-{6-[(7-nitro-2-1,3-benzoxadiazol-4-yl)amino]hexanoyl}-sn-glycero-3-phosphocholine in chloroform (NBD-PC), (Avanti Polar Lipids, Inc. Cat. n. 810130C, Figure S3B) The PIP2-Bodipy probe was diluted in deionized H2O. The final concentration of the fluorescently labeled probe in the measuring buffer in the cuvette was 10 nM and increasing amounts of peptides and fusion protein TRPV1 respectively were titrated into the cuvette. PIP2-Bodipy excitation and emission wavelengths were set to 500 nm and 512 nm and for NBD – PC 460 nm and 534 nm respectively. At each peptide concentration, steady-state fluorescence anisotropy was recorded. The fraction of TRPV1s regions or their mutants bound to fluorescent probe was determined from the anisotropy changes using Eq. (1), where FB is the fraction bound, rmin and rmax are the anisotropies of the free and bound PIP2-Bodipy with TRPV1-CT, pTRPV1 regions or its mutants, robs is the observed anisotropy, and Q is the ratio of the intensities of the free and bound protein (fmax/fmin). All experiments were carried out in at least triplicate. [drawing 1] (1)
The FB was plotted against the TRPV1 peptides and fusion proteins concentration respectively and fitted using Eq. (2) to determine the equilibrium dissociation constant (KD). Non-linear data fitting was performed using the package SigmaPlot 2000 (6.1) SPSS Inc. P1 is the concentration of PIP2-Bodipy and P2 is the concentration of TRPV1 fusion protein or TRPPV1 synthetic peptides. [drawing 2] (2)

[3] = Control steady-state fluorescence anisotropy with NBD-PC; format: binding; conditions: NBD-PC 10 nM
Description: as §1, with “PIP2-Bodipy excitation and emission wavelengths were set to 500 nm and 512 nm and for NBD – PC 460 nm and 534 nm respectively.” left out, “All experiments were carried out in at least triplicate. [drawing 1] (1)” left out

[4] = Control SPR with liposomes containing only phosphatidylcholine; format: binding; conditions: liposomes not containing PIP2
Description: All SPR measurements were performed at 25°C using a liposome-coated NLC chip in aProteOn XPR36 Protein Interaction Array System (Bio-rad, Hercules, CA, USA). Liposomes (100 nm in diameter) were made from 1,2-dimyristoyl-sn-glycero-3-phosphocholine (PC) and L-α-phosphatidylinositol-4,5-bisphosphate (PIP2) (Avanti Lipids, Alabaster, AL, USA) at a molar ratio of 20∶1 (PC/PIP2). Lipid solution (10 mg/ml) in HBSS was mixed with 8 µM oligonucleotide 5′-[…]-3′, modified at the 3′ end with cholesterol (Generi-Biotech, Hradec Kralove, Czech Republic), and the mixture was extruded using a LiposoFast Basic apparatus (Avestin Europe, Mannheim, Germany) with a polycarbonate membrane with a 100-nm pore diameter (Avestin Europe, Mannheim, Germany). The lipid/DNA ratio was 1200∶1. The vesicles were then incubated with 8 µM anti-sense oligonucleotide 5′-[…]-3′, modified at the 5′ end with biotin (Generi-Biotech, Hradec Kralove, Czech Republic), and washed by centrifugation (50,000 g) for 30 min at 4°C. […] Assuming a Langmuir-type binding between the protein (P) and protein binding sites (S) on vesicles (i.e. P + S ↔ PS), Req values were then plotted versus protein concentration (P0), and the KD value was determined by nonlinear least-squares analysis of the binding isotherm using the equation Req = Rmax/(1+KD/P0).

[5] = ELISA, influence of liposome composition on binding to immobilized TRPV1-CT; conditions: liposomes of different composition
Description: The lipids L-α-phosphatidylinositol-4,5-bisphosphate (PIP2), 1,2-dimyristoyl-sn-glycero-3- Phosphatidylserine (PS), 1,2-dimyristoyl-sn-glycero-3-phosphocholine (PC) and 1,2-dimyristoyl-sn-glycero-3- Phosphatidylethanolamine (PE) were obtained from Avanti Polar Lipis, Inc. A stock solution of each lipid was prepared in chloroform, except for PIP2 stock solution, which was prepared in a chloroform:methanol (2∶1) mixture. Liposomes of the following compositions were prepared: PC, PC/PIP2 97/3%, PC/PIP2 90/10%, PC/PIP2/PS 70/10/20%, PC/PIP2/PS/PE 40/10/20/30%, PC/PIP2/PE 70/10/20%, PC/PIP2/PE 77/3/20%, PC/PE/PS 50/30/20% by mixing appropriate volumes of the stock solutions. After being dried under an N2 stream, lipid films were hydrated with 1× HBSS buffer containing 8 µM oligonucleotide 5′-[…]-3′, modified at the 3′ end with cholesterol (Generi-Biotech, Hradec Kralove, Czech Republic)- followed by extrusion 20 times through a polycarbonate membrane with a 100-nm pore diameter (Avestin Europe, Mannheim, Germany). Finally 8 µM complementary oligonucleotide Biotin conjugate 5′-[…]-3′ (Generi-Biotech, Hradec Kralove, Czech Republic) was added to the liposome mixture. A 20-min incubation was followed by centrifugation and washing steps to remove the unbound oligonucleotide-Biotin conjugate.
96-well micro titer plates were used. […] Absorbance was read at 490 nm using a micro plate reader.

CaM = system: CaM; design: method as in PMID 18755153; conditions: TRPV1-CT fusion protein mutants; cited from earlier work

Kd [1]: > 150 µM
Molecule: R771A/R778A: double alanine mutant of TRPV1-CT (712–838) thioredoxin fusion protein
binding to PIP2 containing liposomes (in words) [1]: total loss of binding affinity; also recorded: avoided PIP2 binding totally

Kd [1]: > 150 µM
Molecule: R778A: single alanine mutant of TRPV1-CT (712–838) thioredoxin fusion protein
binding to PIP2 containing liposomes (in words) [1]: total loss of binding affinity; also recorded: inhibited the PIP2 binding | CaM binding (in words) (CaM): did not prevent CaM binding

Kd [1]: 9.1 ± 3.8 µM
Molecule: R781A: single alanine mutant of TRPV1-CT (712–838) thioredoxin fusion protein

Kd [1]: 3.6 ± 0.5 µM
B2: K770A/R781A/R785A: triple alanine mutant of TRPV1-CT (712–838) thioredoxin fusion protein (protein, UniProt O35433 712-838, looked up, variant K770A R781A R785A)
chain: FLKCMRKAFRSGKLLQVGFTPDGKDDYRWCFRVDEVNWTTWNTNVGIINEDPGNCEGVARTLSFSLRSGAVSGANWKNFALVPLLRDASTRDRHATQQEEVQLKHYTGSLKPEDAEVFKDSMVPGEK
modifications: thioredoxin fusion, His tag
notes: triple alanine mutant of TRPV1-CT (712–838) thioredoxin fusion protein

More lines, now with the values behind:

Molecule: K770A/R785A: double alanine mutant of TRPV1-CT (712–838) thioredoxin fusion protein
Kd [1]: 5.8 ± 0.8 µM | binding to PIP2 containing liposomes (in words) [1]: suppressed this interaction partially

Molecule: thioredoxin: fusion tag protein titrated alone as control [reference compound]
binding to PIP2-Bodipy (in words) ([2]; PIP2-Bodipy 10 nM): no thioredoxin–PIP2 binding

Molecule: TRPV1-CT: rat TRPV1 C-tail amino acids 712–838 expressed in E. coli as fusion protein with thioredoxin and 6× His tags
Kd [1]: 3 ± 0.4 µM | SPR binding response ([1]; protein washed over PC/PIP2 liposome chip after regeneration step): approx. 1000 RU | interaction with NBD PC (in words) [3]: no interaction | interaction with liposomes containing only PC (in words) [4]: just a weak interaction was detected | Kd ([2]; listed as WT TRPV1-CT): 3.5 ± 0.9 µM | Kd [2]: 3.48 µM | selectivity for PIP2 over other lipids (in words) [5]: modest selectivity for PIP2 over other used lipids

Molecule: R771A: single alanine mutant of TRPV1-CT (712–838) thioredoxin fusion protein
binding to PIP2 containing liposomes (in words) [1]: preserves its binding ability to PIP2 | CaM binding (in words) (CaM): significantly inhibits the CaM binding

Molecule: R771A/R781A: double alanine mutant of TRPV1-CT (712–838) thioredoxin fusion protein
Kd [1]: 33.5 ± 11.7 µM | binding to PIP2 containing liposomes (in words) [1]: suppressed this interaction partially

B1: K770A/R778A/R785A: triple alanine mutant of TRPV1-CT (712–838) thioredoxin fusion protein (protein, UniProt O35433 712-838, looked up, variant K770A R778A R785A)
chain: B2 chain with R67A, A70R
modifications: thioredoxin fusion, His tag
notes: as for B2
Kd [1]: > 150 µM | binding to PIP2 containing liposomes (in words) [1]: total loss of binding affinity; also recorded: avoided PIP2 binding totally
